Values quoted from earlier work in patent US8192721B2, “Compositions useful for reducing toxicity associated with gadolinium-based contrast agents” (Verrow Pharmaceuticals, Inc., priority 2007, dated 2012).

How the values were obtained:
[1] = compared with underivatized β-cyclodextrin
[2] = healthy subjects with normal renal function

Row | Compound | nephrotoxicity [1] | plasma half-life [2]
1 | β-cyclodextrin sulfobutyl ethers [Captisol®] | does not exhibit the nephrotoxicity | –
2 | [Gd] [gadolinium] | – | approximately 90 minutes
